# Legend:
# [1] = Controlled release of quisinostat from dialysis cassette into PBS; assay type: physicochemical; conditions: 37° C., 3.5k MWCO dialysis cassette
# Procedure: Controlled Release Quisinostat release from nanoparticles was determined using a protocol adapted from Wang et al.. Nanoparticles were diluted to 20 mg/ml in PBS (pH 7) and 400 μl was transferred to a 3.5 k MWCO Slide-A-Lyzer Dialysis cassette (Thermo Fisher Scientific, Waltham, MA USA) in triplicate. Each cassette was immersed in 2 l PBS (pH 7, replaced at each time point) at 37° C. with gentle stirring (100 rpm). At each time point, 30 μl nanoparticles was removed from the cassette and dissolved in 150 μl DMSO. 60 μl dissolved nanoparticles was added in triplicate to a clear, flat bottom, 96-well plate, and the amount of drug remaining was quantified by absorbance as described above. A free quisinostat control at the equivalent concentration was included to measure quisinostat movement across the membrane using the same protocol.
# [2] = tested on: GL261 murine glioma cells; test: In vitro nanoparticle efficacy, CellTiter-Glo cell viability; assay type: cell-based; conditions: Mus musculus, 72 hours, read-out: IC50, growth inhibition
# Procedure: Cell Culture GL261-LucNeo cells were generated by retroviral transduction of parent GL261 cells. The LucNeo construct (obtained from AndrewKung laboratory, Dana-Farber Cancer Institute) is described in Rubin et al.. Cells were maintained under normal adherent culture conditions supplemented with G-418 as a selection pressure. Cells were grown in T25 flasks in DMEM containing glucose, L-glutamine and 10% FBS at 37° C. and 5% CO2. 0.25% trypsin-EDTA was applied to collect cells, and a Cellometer mini (Nexcelom Bioscience, Lawrence, MA USA) was used to count cells prior to all in vitro and in vivo experiments.
# In vitro Nanoparticle Efficacy GL261 cells were seeded in 96-well flat, white walled, clear bottom plates at a density of 3 k cells/well in 100 μl media and allowed to attach for 4 hours prior to adding treatments. Each plate was treated with 10 μl/well of 19 serial dilutions (1:2) ranging from 10 to 0 μM in PBS of either free drug or nanoparticles. After 72 hours, cell viability was assessed using CellTiter-Glo, and an IC50 value was calculated using GraphPad Prism (San Diego, CA USA) by a nonlinear fit of the log (inhibitor) vs. response function.
# [3] = tested on: orthotopic GL261-LucNeo tumors; test: Treatment efficacy in mice bearing orthotopic GL261 tumors (bioluminescence tumor growth, survival); assay type: in vivo, C57BL/6 albino mice; conditions: free drug study: 10 mg/kg IP, days 11, 12, 18, 19, n=5
# Procedure: Tumor induction Orthotopic GL261-LucNeo tumors were induced in C57BL/6 albino mice (Harlan Laboratories, Indianass, IN, USA) as previously reported. Briefly, mice were anesthetized with an intraperitoneal injection of ketamine/xylazine (100/10 mg/kg) and mounted in a stereotaxic frame (Kopf Instruments, Tujunga, CA, USA) on top of an infrared heating pad to maintain animal temperature. The animal's head was shaved and sterilized with three alternating passes each of betadine and ethanol. A 1 cm incision was made over midline, and a burr hole was drilled 2 mm lateral, 0.1 mm posterior of bregma. A hamiltion syringe (29 gauge needle) containing 75 k GL261-LucNeo cells in 2 μl DMEM was inserted into the hole to a depth of 2.8 mm and the cells were injected over 2 min. The needle was left in place for 1 min to reduce backflow before the wound was closed with staples. All animals received a subcutaneous (SQ) injection of Buprenorphine SR prior to surgery, and ibuprofen was provided in their water ad lib for 1 week for pain. […]
# Tumor treatment Quisinostat-loaded nanoparticles were tested in vivo in mice bearing orthotopic GL261 tumors. […] Treatment efficacy was measured by tumor growth and median survival. Mice were monitored daily and euthanized at the sign of symptoms (lack of grooming, abnormal gait, hunched posture, etc.) or greater than 15% weight loss. […]
# [4] = solubilized with hydroxy-propyl-β-cyclodextrin and/or mannitol; IP or SQ injection; cited from earlier work
smiles,measurement,setting,value
"Cn1cc(CNCC2CCN(c3ncc(C(=O)NO)cn3)CC2)c2ccccc21 [quisinostat, Quisinostat]",time to complete quisinostat release,[1],≤ 4 h
same,IC50,[2],24 nM
same,tumor doubling time,[3]; saline 2.4 days,2.4 days
same,median survival,[3]; saline 22 days,19 days
same,maximum tolerated dose,[4],35-70 mg/kg/week

# Source: patent US12233164B2, “Drug delivery composition and method of fabrication” (DIGNITY HEALTH, priority 2017, dated 2025)
